Measured values: ChEMBL document CHEMBL1201862, “PubChem BioAssay data set” (2004)
The source made the active and inactive calls.

How the values were obtained:
[1] = target: T1, Alkaline phosphatase, tissue-nonspecific isozyme (Homo sapiens, UniProt P05186); assay: inhibition of tissue-nonspecific alkaline phosphatase – biochemical, dose response (AID 488882); type: functional
T1 sequence (P05186 whole entry): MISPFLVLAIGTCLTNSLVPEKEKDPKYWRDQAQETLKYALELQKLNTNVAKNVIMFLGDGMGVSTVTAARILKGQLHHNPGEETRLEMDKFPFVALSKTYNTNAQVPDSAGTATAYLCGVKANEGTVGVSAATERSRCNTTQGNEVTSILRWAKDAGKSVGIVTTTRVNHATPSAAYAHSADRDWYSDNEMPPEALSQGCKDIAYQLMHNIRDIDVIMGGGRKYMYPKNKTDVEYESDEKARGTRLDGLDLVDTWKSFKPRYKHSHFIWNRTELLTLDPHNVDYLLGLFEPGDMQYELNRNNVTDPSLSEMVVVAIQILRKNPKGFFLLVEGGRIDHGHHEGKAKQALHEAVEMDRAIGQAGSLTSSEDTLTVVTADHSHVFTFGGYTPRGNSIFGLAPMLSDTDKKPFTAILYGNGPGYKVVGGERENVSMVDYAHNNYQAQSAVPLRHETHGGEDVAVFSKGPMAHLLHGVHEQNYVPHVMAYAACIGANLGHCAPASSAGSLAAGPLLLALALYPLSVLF

H4 = assay: Luminescence Cell-Based Dose Response HTS to Identify Activators of 5'UTR Stem-Loop Driven Prion Protein mRNA Translation in H4 Neuroglioblastoma Cells. [Related pubchem assays: 1829 (Project Summary), 1814 (Primary HTS)]; type: functional; details: Homo sapiens
HEK293 = assay: optical interference in Abeta FP readout, dose response, artefact control for IDE activator project, biochemical, fluorescence polarization (AID 588442); type: functional, cell-based; details: Homo sapiens
Insulin-degrading enzyme = target: T2, Insulin-degrading enzyme (Homo sapiens, UniProt P14735); assay: cellular IDE activation of Abeta substrate cleavage – fluorescence polarization, HEK cells, dose response (AID 588439); type: functional, cell-based
T2 sequence (P14735 whole entry): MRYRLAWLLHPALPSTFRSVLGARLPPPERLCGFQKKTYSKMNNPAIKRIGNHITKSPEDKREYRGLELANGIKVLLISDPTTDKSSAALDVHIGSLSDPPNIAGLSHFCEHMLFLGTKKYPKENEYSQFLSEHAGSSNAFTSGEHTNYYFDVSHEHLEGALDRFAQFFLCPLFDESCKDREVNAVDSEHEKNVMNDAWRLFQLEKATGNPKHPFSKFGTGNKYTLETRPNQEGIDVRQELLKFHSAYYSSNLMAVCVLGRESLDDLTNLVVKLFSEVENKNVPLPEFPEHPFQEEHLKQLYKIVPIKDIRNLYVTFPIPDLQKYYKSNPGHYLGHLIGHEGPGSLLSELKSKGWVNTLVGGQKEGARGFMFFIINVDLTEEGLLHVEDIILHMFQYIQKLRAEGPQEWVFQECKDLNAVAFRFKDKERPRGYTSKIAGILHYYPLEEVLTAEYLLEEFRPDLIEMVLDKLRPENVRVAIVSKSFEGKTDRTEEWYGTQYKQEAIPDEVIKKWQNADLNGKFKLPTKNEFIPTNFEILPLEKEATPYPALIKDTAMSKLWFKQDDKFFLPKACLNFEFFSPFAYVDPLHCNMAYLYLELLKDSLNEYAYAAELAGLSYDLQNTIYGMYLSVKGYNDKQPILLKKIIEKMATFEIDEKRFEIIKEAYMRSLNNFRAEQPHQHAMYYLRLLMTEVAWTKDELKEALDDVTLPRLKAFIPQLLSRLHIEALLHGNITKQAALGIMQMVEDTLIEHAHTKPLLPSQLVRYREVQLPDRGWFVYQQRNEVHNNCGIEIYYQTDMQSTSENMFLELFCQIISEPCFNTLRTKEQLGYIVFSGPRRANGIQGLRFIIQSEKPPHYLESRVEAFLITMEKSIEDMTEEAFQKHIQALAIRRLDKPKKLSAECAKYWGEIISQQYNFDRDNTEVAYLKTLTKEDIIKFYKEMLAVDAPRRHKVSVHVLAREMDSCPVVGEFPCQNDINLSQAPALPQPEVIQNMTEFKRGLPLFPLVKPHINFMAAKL

[2] = M. tuberculosis H37Rv growth inhibitors, H37Rv strain (AID 1626); type: functional
[3] = target: MAP kinase-activated protein kinase 5 (Homo sapiens, UniProt Q8IW41); type: functional;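 also: measured as one member of a kinome panel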
[4] = target: Serine/threonine-protein kinase Chk2 (Homo sapiens, UniProt O96017); type: functional;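 also: CHEK2 entry within a kinome-wide screening panel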
[5] = target: Serine/threonine-protein kinase 3 (Homo sapiens, UniProt Q13188); type: functional;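 also: measured as one member of a kinome-wide kinase panel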
[6] = target: Insulin-like growth factor 1 receptor (Homo sapiens, UniProt P08069); assay: Navigating the Kinome. Panel member name: IGF1R; type: functional
[7] = target: Fibroblast growth factor receptor 1 (Homo sapiens, UniProt P11362); type: functional
[8] = target: Serine/threonine-protein kinase 17A (Homo sapiens, UniProt Q9UEE5); type: functional
[9] = target: Interleukin-1 receptor-associated kinase 1 (Homo sapiens, UniProt P51617); type: functional;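 also: IRAK1 tested as one member of a kinome panel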
[10] = target: Macrophage colony-stimulating factor 1 receptor (Homo sapiens, UniProt P07333); type: functional;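 also: value comes from the Navigating the Kinome screening panel, CSF1R member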
[11] = target: cGMP-dependent protein kinase 1 (Homo sapiens, UniProt Q13976); type: functional;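 also: value from a kinome panel screen with PRKG1 as the panel member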
SRSF protein kinase 1 = SRSF protein kinase 1 (Homo sapiens, UniProt Q96SB4); type: functional;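 also: measured as one member of a kinome-wide kinase profiling panel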
[12] = target: Glycogen synthase kinase-3 beta (Homo sapiens, UniProt P49841); type: functional;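 also: value comes from a broad kinome profiling panel, with GSK3B as the panel member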
[13] = target: Calcium/calmodulin-dependent protein kinase type II subunit gamma (Homo sapiens, UniProt Q13555); type: functional
[14] = target: Megakaryocyte-associated tyrosine-protein kinase (Homo sapiens, UniProt P42679); type: functional;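 also: affinity measured as one member of a kinase panel (Navigating the Kinome) against MATK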
[15] = target: Serine/threonine-protein kinase Chk1 (Homo sapiens, UniProt O14757); type: functional;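 also: measured as one member of a kinome-wide kinase profiling panel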
Misshapen-like kinase 1 = Misshapen-like kinase 1 (Homo sapiens, UniProt Q8N4C8); type: functional;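 also: kinome panel screen with MINK as the panel member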
[16] = target: Tyrosine-protein kinase ITK/TSK (Homo sapiens, UniProt Q08881); type: functional;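 also: affinity for ITK measured as one member of a broad kinase panel profiling binding across the kinome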
[17] = target: MAP kinase-activated protein kinase 2 (Homo sapiens, UniProt P49137); type: functional;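 also: measured as one member of a kinome-wide kinase panel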
[18] = target: Testis-specific serine/threonine-protein kinase 1 (Homo sapiens, UniProt Q9BXA7); type: functional
[19] = target: Serine/threonine-protein kinase pim-1 (Homo sapiens, UniProt P11309); type: functional

Sequence of Misshapen-like kinase 1 (Q8N4C8 whole entry): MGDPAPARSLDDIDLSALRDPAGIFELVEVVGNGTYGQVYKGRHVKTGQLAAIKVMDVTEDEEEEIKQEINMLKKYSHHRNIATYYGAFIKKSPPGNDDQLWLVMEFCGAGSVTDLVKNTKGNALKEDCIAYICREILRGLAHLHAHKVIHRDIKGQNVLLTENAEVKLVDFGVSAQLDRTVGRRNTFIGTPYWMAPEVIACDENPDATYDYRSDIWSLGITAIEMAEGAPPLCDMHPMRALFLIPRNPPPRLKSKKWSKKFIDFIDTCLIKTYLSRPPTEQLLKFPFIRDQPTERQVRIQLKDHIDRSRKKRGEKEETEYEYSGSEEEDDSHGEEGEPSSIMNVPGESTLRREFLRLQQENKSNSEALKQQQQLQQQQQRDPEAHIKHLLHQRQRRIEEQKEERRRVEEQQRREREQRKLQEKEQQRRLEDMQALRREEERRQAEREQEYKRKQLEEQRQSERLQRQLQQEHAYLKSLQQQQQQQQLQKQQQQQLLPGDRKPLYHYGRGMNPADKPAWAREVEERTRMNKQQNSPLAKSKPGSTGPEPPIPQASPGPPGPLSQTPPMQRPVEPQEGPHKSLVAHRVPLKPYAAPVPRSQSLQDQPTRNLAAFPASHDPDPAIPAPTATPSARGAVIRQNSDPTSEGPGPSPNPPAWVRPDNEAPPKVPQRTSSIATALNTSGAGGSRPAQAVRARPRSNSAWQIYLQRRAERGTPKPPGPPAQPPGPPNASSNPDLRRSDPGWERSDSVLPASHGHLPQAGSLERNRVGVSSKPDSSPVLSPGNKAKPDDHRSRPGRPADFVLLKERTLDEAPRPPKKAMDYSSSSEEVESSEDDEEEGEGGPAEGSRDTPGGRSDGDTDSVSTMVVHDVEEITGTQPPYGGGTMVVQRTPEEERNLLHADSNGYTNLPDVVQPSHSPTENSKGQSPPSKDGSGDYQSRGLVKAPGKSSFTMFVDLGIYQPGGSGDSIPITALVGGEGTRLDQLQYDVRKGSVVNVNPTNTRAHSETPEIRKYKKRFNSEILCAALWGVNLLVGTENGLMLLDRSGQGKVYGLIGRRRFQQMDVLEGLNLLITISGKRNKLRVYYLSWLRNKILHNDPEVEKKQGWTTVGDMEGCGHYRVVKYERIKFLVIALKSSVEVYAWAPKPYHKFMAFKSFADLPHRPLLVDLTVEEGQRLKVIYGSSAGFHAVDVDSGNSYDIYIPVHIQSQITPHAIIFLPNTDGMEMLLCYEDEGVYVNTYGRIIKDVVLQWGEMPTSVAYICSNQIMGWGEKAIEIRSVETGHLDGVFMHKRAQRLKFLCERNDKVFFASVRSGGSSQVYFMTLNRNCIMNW
Sequence of Serine/threonine-protein kinase Chk1 (O14757 whole entry): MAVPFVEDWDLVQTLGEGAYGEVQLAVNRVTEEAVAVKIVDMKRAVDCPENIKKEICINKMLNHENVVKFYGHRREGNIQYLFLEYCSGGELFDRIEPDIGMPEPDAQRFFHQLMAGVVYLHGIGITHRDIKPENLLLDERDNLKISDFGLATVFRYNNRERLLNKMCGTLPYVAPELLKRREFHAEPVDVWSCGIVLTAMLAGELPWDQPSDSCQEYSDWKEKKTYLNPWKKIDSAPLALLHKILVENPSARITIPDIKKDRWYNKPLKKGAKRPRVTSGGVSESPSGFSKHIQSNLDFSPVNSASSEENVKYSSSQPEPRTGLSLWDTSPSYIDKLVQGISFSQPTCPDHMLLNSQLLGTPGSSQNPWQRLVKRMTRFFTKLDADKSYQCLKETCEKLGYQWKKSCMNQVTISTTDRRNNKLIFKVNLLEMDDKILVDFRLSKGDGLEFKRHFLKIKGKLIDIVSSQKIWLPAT
Sequence of Serine/threonine-protein kinase 3 (Q13188 whole entry): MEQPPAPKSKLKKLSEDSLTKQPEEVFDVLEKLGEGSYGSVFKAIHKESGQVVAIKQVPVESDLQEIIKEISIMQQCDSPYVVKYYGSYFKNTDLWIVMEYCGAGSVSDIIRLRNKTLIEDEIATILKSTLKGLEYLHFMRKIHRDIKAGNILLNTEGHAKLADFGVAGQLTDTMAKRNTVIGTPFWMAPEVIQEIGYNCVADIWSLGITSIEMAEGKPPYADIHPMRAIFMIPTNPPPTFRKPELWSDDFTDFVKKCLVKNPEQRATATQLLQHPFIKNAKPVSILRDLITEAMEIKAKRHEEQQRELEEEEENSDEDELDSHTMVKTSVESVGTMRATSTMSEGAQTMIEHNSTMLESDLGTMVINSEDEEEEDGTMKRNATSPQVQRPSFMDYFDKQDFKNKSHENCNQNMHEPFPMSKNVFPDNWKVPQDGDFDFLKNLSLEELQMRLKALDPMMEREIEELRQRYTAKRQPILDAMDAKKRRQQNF
Sequence of Serine/threonine-protein kinase 17A (Q9UEE5 whole entry): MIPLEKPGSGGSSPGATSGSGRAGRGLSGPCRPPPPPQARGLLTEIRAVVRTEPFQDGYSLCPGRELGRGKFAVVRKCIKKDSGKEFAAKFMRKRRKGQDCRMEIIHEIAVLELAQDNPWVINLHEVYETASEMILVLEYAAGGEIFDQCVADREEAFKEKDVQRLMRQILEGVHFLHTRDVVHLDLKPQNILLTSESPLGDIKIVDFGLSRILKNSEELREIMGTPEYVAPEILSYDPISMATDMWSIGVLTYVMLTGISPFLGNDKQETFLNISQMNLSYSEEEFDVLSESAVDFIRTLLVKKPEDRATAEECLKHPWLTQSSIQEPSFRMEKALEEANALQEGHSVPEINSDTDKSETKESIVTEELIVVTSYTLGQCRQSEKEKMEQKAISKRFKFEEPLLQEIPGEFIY
Sequence of Fibroblast growth factor receptor 1 (P11362 whole entry): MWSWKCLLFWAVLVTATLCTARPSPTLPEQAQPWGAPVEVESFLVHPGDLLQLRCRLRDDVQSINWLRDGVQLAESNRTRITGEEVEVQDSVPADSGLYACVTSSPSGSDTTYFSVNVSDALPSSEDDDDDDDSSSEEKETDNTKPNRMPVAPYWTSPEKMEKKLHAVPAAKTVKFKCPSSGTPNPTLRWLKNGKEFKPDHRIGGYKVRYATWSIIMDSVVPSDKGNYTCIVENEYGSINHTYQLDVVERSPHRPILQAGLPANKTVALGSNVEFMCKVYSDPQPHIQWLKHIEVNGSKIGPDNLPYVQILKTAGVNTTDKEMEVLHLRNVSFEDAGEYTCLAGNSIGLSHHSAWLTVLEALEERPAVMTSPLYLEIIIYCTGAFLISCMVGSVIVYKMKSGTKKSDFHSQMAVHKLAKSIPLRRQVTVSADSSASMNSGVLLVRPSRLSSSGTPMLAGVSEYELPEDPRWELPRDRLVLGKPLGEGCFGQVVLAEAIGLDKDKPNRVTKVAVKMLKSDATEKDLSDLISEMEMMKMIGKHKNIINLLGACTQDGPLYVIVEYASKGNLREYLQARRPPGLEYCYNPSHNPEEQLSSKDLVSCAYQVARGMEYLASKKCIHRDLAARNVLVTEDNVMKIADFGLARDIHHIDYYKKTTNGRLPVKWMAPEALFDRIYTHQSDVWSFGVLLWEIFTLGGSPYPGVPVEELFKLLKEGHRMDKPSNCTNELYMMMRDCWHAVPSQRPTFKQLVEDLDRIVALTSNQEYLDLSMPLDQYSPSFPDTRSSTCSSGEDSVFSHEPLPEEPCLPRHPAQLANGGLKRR
Sequence of Calcium/calmodulin-dependent protein kinase type II subunit gamma (Q13555 whole entry): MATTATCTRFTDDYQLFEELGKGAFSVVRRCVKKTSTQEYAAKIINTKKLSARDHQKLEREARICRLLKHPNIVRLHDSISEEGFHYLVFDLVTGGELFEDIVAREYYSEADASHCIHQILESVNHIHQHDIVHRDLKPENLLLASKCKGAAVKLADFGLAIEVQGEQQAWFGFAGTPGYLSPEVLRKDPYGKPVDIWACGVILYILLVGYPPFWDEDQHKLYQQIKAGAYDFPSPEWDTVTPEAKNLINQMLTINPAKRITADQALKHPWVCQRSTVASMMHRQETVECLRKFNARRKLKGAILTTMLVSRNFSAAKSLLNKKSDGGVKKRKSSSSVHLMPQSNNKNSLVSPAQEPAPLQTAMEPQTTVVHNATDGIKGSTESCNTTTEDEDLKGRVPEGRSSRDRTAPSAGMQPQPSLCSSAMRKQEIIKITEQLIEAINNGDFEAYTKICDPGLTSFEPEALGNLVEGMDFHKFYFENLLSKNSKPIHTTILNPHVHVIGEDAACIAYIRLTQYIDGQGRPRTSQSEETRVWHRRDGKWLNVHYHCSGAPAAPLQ
Sequence of Glycogen synthase kinase-3 beta (P49841 whole entry): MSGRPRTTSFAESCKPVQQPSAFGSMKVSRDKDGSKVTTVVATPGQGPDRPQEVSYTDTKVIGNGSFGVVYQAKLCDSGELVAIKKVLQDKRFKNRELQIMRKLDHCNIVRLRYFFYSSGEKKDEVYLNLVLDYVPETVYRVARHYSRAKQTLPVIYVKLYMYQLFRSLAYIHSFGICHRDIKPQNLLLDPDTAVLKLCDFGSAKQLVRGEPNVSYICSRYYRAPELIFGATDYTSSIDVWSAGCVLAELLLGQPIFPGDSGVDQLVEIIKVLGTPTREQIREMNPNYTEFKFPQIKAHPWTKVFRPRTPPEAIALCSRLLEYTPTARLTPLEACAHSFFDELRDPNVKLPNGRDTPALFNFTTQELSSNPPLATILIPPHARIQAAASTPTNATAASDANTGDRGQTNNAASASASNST
Sequence of Testis-specific serine/threonine-protein kinase 1 (Q9BXA7 whole entry): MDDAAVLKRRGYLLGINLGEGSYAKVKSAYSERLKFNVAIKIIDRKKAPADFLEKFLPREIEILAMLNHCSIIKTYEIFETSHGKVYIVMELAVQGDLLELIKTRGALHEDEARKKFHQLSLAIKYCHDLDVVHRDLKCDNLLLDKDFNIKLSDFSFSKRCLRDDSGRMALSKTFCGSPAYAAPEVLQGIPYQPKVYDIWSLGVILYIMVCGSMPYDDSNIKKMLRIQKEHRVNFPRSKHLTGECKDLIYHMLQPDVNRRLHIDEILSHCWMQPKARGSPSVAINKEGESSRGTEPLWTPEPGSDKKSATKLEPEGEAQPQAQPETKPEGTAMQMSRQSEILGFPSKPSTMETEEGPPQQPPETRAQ

In the case of `CCN1/C(=C\c2ccc3ccccc3[n+]2CC)Sc2cc(C)ccc21`, the IC50 [1] is reported as 28600 nM (active) and the EC50 (H4) is reported as > 120000 nM (not active).

With `CCCCCCCCCCOC(=O)C[n+]1c(COc2ccc(C)cc2)n(C)c2ccccc21` the EC50 (HEK293) was > 55900 nM (inactive) and the EC50 (Insulin-degrading enzyme) was > 6080 nM (active).

In the case of `O=C(CCl)Oc1ccc2occ(C(=O)c3cccs3)c2c1`, the IC50 [2] is reported as > 100000 nM (active).

In the case of `CN1CCN(c2nc(C3=C(c4c[nH]c5ccccc45)C(=O)NC3=O)c3ccccc3n2)CC1` [SOTRASTAURIN], the Ki [3] is reported as > 1580 nM (inactive), the Ki [4] is reported as > 1580 nM (inactive) and the Ki [5] is reported as 126 nM (active). The Ki [6] was > 2000 nM (inactive), the Ki [7] was > 2510 nM (inactive) and the Ki [8] was > 3980 nM (inactive). The Ki [9] was > 7940 nM (inactive), the Ki [10] was > 2510 nM (inactive) and the Ki [11] was 794 nM (active). The Ki (SRSF protein kinase 1) was > 7940 nM (inactive), the Ki [12] was 200 nM (active) and the Ki [13] was 79.4 nM (active). The Ki [14] was > 2000 nM (inactive), the Ki [15] was > 5010 nM (inactive) and the Ki (Misshapen-like kinase 1) was 7.94 nM (active). The Ki [16] was > 1580 nM (inactive), the Ki [17] was > 7940 nM (inactive) and the Ki [18] was > 1580 nM (inactive). For the same molecule, the Ki [19] was 158 nM (active).
